Assay results from the CheMixHub viscosity set.

Assay: xn = mol fraction of the nth substance listed

NC=O + CCC(C)O
101 kPa
Conditions	viscosity [mPa·s]
293.15 K, x1 = 0.5093	4.025
318.15 K, x1 = 0.9024	2.175

CN1CCC[C@H]1c1cccnc1 + CCCC(=O)O
viscosity [mPa·s], 101 kPa
Conditions	298.15 K	323.15 K
x1 = 0.099	11.74	5.188
x1 = 0.1992	48.69	14.24
x1 = 0.2139	52.39	14.9
x1 = 0.2277	53.82	15.04
x1 = 0.234	53.97	15.13
x1 = 0.2478	54.2	14.99
x1 = 0.2707	53.87	14.89
x1 = 0.2993	50.77	13.9
x1 = 0.3872	29.61	9.46
x1 = 0.5011	17.55	–
x1 = 0.6081	11.63	4.462
x1 = 0.697	8.404	3.766
x1 = 0.804	6.265	2.983
x1 = 0.8928	5.192	2.579

CCOC(=O)CCC(=O)OCC + CCCC(=O)OCC
Conditions	viscosity [mPa·s]
303.15 K, 100 kPa, x2 = 0.3003	1.535

CCCCCCCCCCC + CCCCC
viscosity [mPa·s]
Conditions	293.15 K	298.15 K	303.15 K	308.15 K	313.15 K	318.15 K	323.15 K
100 kPa, x2 = 0.1034	1.033	0.957	0.887	0.825	0.77	0.721	0.677
100 kPa, x2 = 0.2018	0.906	0.842	0.784	0.732	0.686	0.645	0.607
100 kPa, x2 = 0.3079	0.774	0.723	0.676	0.634	0.597	0.563	0.531
100 kPa, x2 = 0.3996	0.689	0.645	0.606	0.571	0.538	0.509	0.483
100 kPa, x2 = 0.5027	0.594	0.556	0.523	0.494	0.468	0.444	0.422
100 kPa, x2 = 0.6106	0.488	0.461	0.437	0.415	0.395	0.376	0.366
100 kPa, x2 = 0.702	0.427	0.405	0.386	0.368	0.358	–	–
100 kPa, x2 = 0.8003	0.359	0.341	0.324	0.308	–	–	–
100 kPa, x2 = 0.8988	0.287	0.273	0.259	–	–	–	–
101.33 kPa, x2 = 0.0962	–	0.9653	–	–	–	–	–
101.33 kPa, x2 = 0.1826	–	0.8798	–	–	–	–	–
101.33 kPa, x2 = 0.274	–	0.7841	–	–	–	–	–
101.33 kPa, x2 = 0.368	–	0.6944	–	–	–	–	–
101.33 kPa, x2 = 0.4834	–	0.5825	–	–	–	–	–
101.33 kPa, x2 = 0.5738	–	0.5061	–	–	–	–	–
101.33 kPa, x2 = 0.6599	–	0.4333	–	–	–	–	–
101.33 kPa, x2 = 0.7461	–	0.3731	–	–	–	–	–
101.33 kPa, x2 = 0.8967	–	0.2805	–	–	–	–	–

CCCCCCCCCCC + CCCCCC
viscosity [mPa·s]
Conditions	293.15 K	298.15 K	303.15 K	308.15 K	313.15 K	318.15 K	323.15 K
100 kPa, x2 = 0.1021	1.036	0.958	0.89	0.828	0.773	0.724	0.68
100 kPa, x2 = 0.1994	0.934	0.867	0.804	0.751	0.704	0.662	0.623
100 kPa, x2 = 0.306	0.819	0.763	0.712	0.668	0.627	0.591	0.558
100 kPa, x2 = 0.4014	0.731	0.684	0.64	0.602	0.567	0.535	0.507
100 kPa, x2 = 0.4991	0.646	0.606	0.57	0.538	0.508	0.481	0.456
100 kPa, x2 = 0.601	0.563	0.53	0.5	0.473	0.449	0.426	0.406
100 kPa, x2 = 0.7028	0.489	0.462	0.438	0.415	0.395	0.377	0.36
100 kPa, x2 = 0.7989	0.424	0.402	0.383	0.365	0.348	0.333	0.319
100 kPa, x2 = 0.9	0.364	0.347	0.331	0.315	0.302	0.292	0.28
101.33 kPa, x2 = 0.1036	–	0.963	–	–	–	–	–
101.33 kPa, x2 = 0.1988	–	0.876	–	–	–	–	–
101.33 kPa, x2 = 0.2999	–	0.7746	–	–	–	–	–
101.33 kPa, x2 = 0.4051	–	0.6933	–	–	–	–	–
101.33 kPa, x2 = 0.5076	–	0.609	–	–	–	–	–
101.33 kPa, x2 = 0.606	–	0.5391	–	–	–	–	–
101.33 kPa, x2 = 0.7068	–	0.4643	–	–	–	–	–
101.33 kPa, x2 = 0.8048	–	0.4044	–	–	–	–	–
101.33 kPa, x2 = 0.9022	–	0.3552	–	–	–	–	–

CCCCCCCCCCC + CCCCCCC
viscosity [mPa·s]
Conditions	100 kPa	101.33 kPa
297.15 K, x2 = 0.5	–	0.6901
298.15 K, x2 = 0.1084	–	0.9818
298.15 K, x2 = 0.2093	–	0.8983
298.15 K, x2 = 0.3019	–	0.8173
298.15 K, x2 = 0.4051	–	0.7452
298.15 K, x2 = 0.5067	–	0.672
298.15 K, x2 = 0.6076	–	0.6072
298.15 K, x2 = 0.7041	–	0.5479
298.15 K, x2 = 0.8052	–	0.4894
298.15 K, x2 = 0.8998	–	0.4335
302.98 K, x2 = 0.8	0.4886	–
303.09 K, x2 = 0.5	0.6364	0.6364
312.85 K, x2 = 0.5	–	0.563
323.04 K, x2 = 0.5	0.5009	0.5009

CCCCCCCCCCC + CCCCCCCC
298.15 K, 101.33 kPa
Conditions	viscosity [mPa·s]
x2 = 0.1011	1.012
x2 = 0.2077	0.9375
x2 = 0.3112	0.8621
x2 = 0.406	0.8112
x2 = 0.5073	0.7521
x2 = 0.6089	0.7019
x2 = 0.7063	0.645
x2 = 0.8047	0.6014
x2 = 0.9039	0.5503

CCCCCCCCCCC + CCCCCCCCC
298.15 K, 101.33 kPa
Conditions	viscosity [mPa·s]
x2 = 0.1034	1.03
x2 = 0.2088	0.9658
x2 = 0.3024	0.931
x2 = 0.4073	0.8929
x2 = 0.5057	0.8476
x2 = 0.6037	0.8141
x2 = 0.7055	0.77
x2 = 0.8002	0.7331
x2 = 0.9038	0.687

CCCCCCCCCCC + CCCCCCCCCC
298.15 K, 101.33 kPa
Conditions	viscosity [mPa·s]
x2 = 0.1074	1.056
x2 = 0.2094	1.03
x2 = 0.3054	1.009
x2 = 0.4086	0.9854
x2 = 0.5085	0.9556
x2 = 0.608	0.9393
x2 = 0.7092	0.9206
x2 = 0.8045	0.9013
x2 = 0.9056	0.868

CCCCCCCCCCC + CCCCCCCCCCCC
298.15 K, 101.33 kPa
Conditions	viscosity [mPa·s]
x1 = 0.106	1.314
x1 = 0.2057	1.297
x1 = 0.3093	1.253
x1 = 0.4136	1.236
x1 = 0.5553	1.196
x1 = 0.6095	1.175
x1 = 0.7174	1.143
x1 = 0.8145	1.126
x1 = 0.9084	1.11

CCCCCCCCCCC + CCCCCCCCCCCCCCCC
298.15 K, 101.33 kPa
Conditions	viscosity [mPa·s]
x1 = 0.1095	2.783
x1 = 0.2008	2.549
x1 = 0.3116	2.315
x1 = 0.4052	2.108
x1 = 0.5071	1.905
x1 = 0.6081	1.723
x1 = 0.7051	1.534
x1 = 0.806	1.363
x1 = 0.9031	1.209

CCCCCCCCCCC + CCCCCCCCCCO
viscosity [mPa·s], 100 kPa
Conditions	x1 = 0.1003	x1 = 0.2003	x1 = 0.3005	x1 = 0.3972	x1 = 0.4989	x1 = 0.5997	x1 = 0.7007	x1 = 0.8	x1 = 0.8987
293.15 K	10.47	7.7	5.667	4.374	3.193	2.542	1.992	1.626	1.378
298.15 K	8.685	6.471	4.833	3.775	2.8	2.254	1.793	1.486	1.256
303.15 K	7.267	5.479	4.152	3.283	2.477	2.015	1.628	1.368	1.154
308.15 K	6.125	4.678	3.591	2.873	2.202	1.814	1.508	1.252	1.06
313.15 K	5.2	4.018	3.127	2.533	1.97	1.644	1.376	1.149	0.979
318.15 K	4.447	3.475	2.741	2.26	1.773	1.518	1.256	1.058	0.908
323.15 K	3.825	3.02	2.418	2.006	1.655	1.382	1.152	0.975	0.846
